Target: T1, Human BCL-XL protein (N-terminal HiBiT tagged BCL-XL in HT1080 cells) (Homo sapiens, UniProt Q07817)
T1 construct: expressed in transfected cells; host or cells: HT-1080 (ATCC CCL-121), stably transduced with lentivirus pLV-UBC-N-HiBiT-BCL-XL-PGK-puro and selected with puromycin
Test: HiBiT based degradation assay
Assay type: cell-based
Details: HT1080 cells expressing HiBiT-BCL-XL, 24 h; for Ymin (24 h): BCL-XL degradation normalized with DMSO control; for DC50: BCL-XL degradation, read-out: EC50 (24 h)
Source text: Human BCL-XL protein coding open reading frame fused with N-terminal HiBiT coding sequence was synthesized from Integrated DNA Technologies (IDT). Next, N-HiBiT-BCL-XL sequence was cloned into pLV-UBC-PGK-Puro, a lentivirus plasmid purchased from Vectorbuilder, to generate pLV-UBC-N-HiBiT-BCL-XL-PGK-puro. Lentiviral particles were generated from Lenti-X™ 293T cells (Clontech) by co-transfection of pLV-UBC-N-HiBiT-BCL-XL-PGK-puro plasmids and lentiviral packaging plasmid mix (Cellecta). HT-1080 [HT1080](ATCC CCL-121) cells were infected with the lentivirus, and HT1080 cells stably integrated with the lentiviral vectors were established by incubation with 1 μg/mL puromycin (Thermofisher).
HT1080 cells expressing N-terminal HiBiT tagged BCL-XL were dispensed into a 384-well plate pre-spotted with compounds at varying concentrations. Three thousand cells were seeded into each well in 40 μL of RPMI 1640 media. […] After incubation, luminescence was read on a PHERAstar FSX Plate Reader (BMG). BCL-XL degradation at each indicated concentration was normalized with the DMSO control. The BCL-XL degradation curves were plotted using a four-parameter logistic model. For compounds displaying hook effects, the curve fitting was performed using the bottom point of the hook curves (i.e., the point of Ymin) as the bottom plateau to calculate EC50.

T1 sequence (Q07817 whole entry): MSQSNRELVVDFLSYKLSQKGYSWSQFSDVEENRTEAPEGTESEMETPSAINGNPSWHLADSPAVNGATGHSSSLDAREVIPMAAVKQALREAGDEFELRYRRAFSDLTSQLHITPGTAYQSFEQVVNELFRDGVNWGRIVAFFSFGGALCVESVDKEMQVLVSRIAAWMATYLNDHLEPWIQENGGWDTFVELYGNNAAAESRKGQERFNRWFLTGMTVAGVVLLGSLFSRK

Which “Ymin (24 h)” value does the source give for `Cc1c(O[C@H]2CC[C@H](CC[C@H](C)CN3CCN(c4ccc5c(C6CCC(=O)NC6=O)nn(C)c5c4)CC3)CC2)cccc1-c1ccc(N2CCc3cccc(C(=O)Nc4nc5ccccc5s4)c3C2)nc1C(=O)O` (single isomer, unassigned) [Compound 308b] here?
The value was “A (Ymin < 50%)”.

And the DC50?
Its DC50 is less than 0.1 µM.

How did the “Ymin (24 h)” value turn out when `Cc1c(O[C@H]2CC[C@H]([C@H](C)CCN3CCN(c4ccc5c(C6CCC(=O)NC6=O)nn(C)c5c4)CC3)CC2)cccc1-c1ccc(N2CCc3cccc(C(=O)Nc4nc5ccccc5s4)c3C2)nc1C(=O)O` (single isomer, unassigned) [Compound 310a] was run?
Its value is “A (Ymin < 50%)”.

What about the DC50 of the same compound?
Its DC50 is less than 0.1 µM.

Which results are given for `Cc1c(O[C@H]2CC[C@H]([C@@H](C)CCN3CCN(c4ccc5c(C6CCC(=O)NC6=O)nn(C)c5c4)CC3)CC2)cccc1-c1ccc(N2CCc3cccc(C(=O)Nc4nc5ccccc5s4)c3C2)nc1C(=O)O` (single isomer, unassigned) [Compound 310b]?
Ymin (24 h): A (Ymin < 50%); DC50: < 0.1 µM

Which results are given for `Cc1c(O[C@H]2CC[C@H](CCCN3CCC(c4cccc5c(C6CCC(=O)NC6=O)nn(C)c45)C3)CC2)cccc1-c1ccc(N2CCc3cccc(C(=O)Nc4nc5ccccc5s4)c3C2)nc1C(=O)O` (single isomer, unassigned) [Compound 320a]?
Ymin (24 h): A (Ymin < 50%); DC50: < 0.1 µM

Which “Ymin (24 h)” value does the source give for `Cc1c(O[C@H]2CC[C@H](CCCN3CC[C@@H](c4cccc5c(C6CCC(=O)NC6=O)nn(C)c45)C3)CC2)cccc1-c1ccc(N2CCc3cccc(C(=O)Nc4nc5ccccc5s4)c3C2)nc1C(=O)O` (single isomer, unassigned) [Compound 320b] here?
The value was “A (Ymin < 50%)”.

And the DC50?
The DC50 was less than 0.1 µM.

How did the “Ymin (24 h)” value turn out when `Cc1c(O[C@H]2CC[C@H](CCCCN3CC[C@H](c4cccc5c(C6CCC(=O)NC6=O)nn(C)c45)C3)CC2)cccc1-c1ccc(N2CCc3cccc(C(=O)Nc4nc5ccccc5s4)c3C2)nc1C(=O)O` (single isomer, unassigned) [Compound 321a] was run?
Its value is “A (Ymin < 50%)”.

And the DC50?
The DC50 was less than 0.1 µM.

`Cc1c(O[C@H]2CC[C@H](CCCCN3CC[C@@H](c4cccc5c(C6CCC(=O)NC6=O)nn(C)c45)C3)CC2)cccc1-c1ccc(N2CCc3cccc(C(=O)Nc4nc5ccccc5s4)c3C2)nc1C(=O)O` (single isomer, unassigned) [Compound 321b] was tested. Which “Ymin (24 h)” value did it give?
The value was “A (Ymin < 50%)”.

And the DC50?
Its DC50 is less than 0.1 µM.

Which “Ymin (24 h)” value does the source give for `Cc1c(O[C@H]2CC[C@H](CCCN3CC[C@H](c4ccc5c(C6CCC(=O)NC6=O)nn(C)c5c4)C3)CC2)cccc1-c1ccc(N2CCc3cccc(C(=O)Nc4nc5ccccc5s4)c3C2)nc1C(=O)O` (single isomer, unassigned) [Compound 331a] here?
Its value is “A (Ymin < 50%)”.

And the DC50?
The DC50 was less than 0.1 µM.

`Cc1c(O[C@H]2CC[C@H](CCCN3CC[C@@H](c4ccc5c(C6CCC(=O)NC6=O)nn(C)c5c4)C3)CC2)cccc1-c1ccc(N2CCc3cccc(C(=O)Nc4nc5ccccc5s4)c3C2)nc1C(=O)O` (single isomer, unassigned) [Compound 331b] was tested. Which “Ymin (24 h)” value did it give?
The value was “A (Ymin < 50%)”.

And the DC50?
Its DC50 is less than 0.1 µM.

With `Cc1c(O[C@H]2CC[C@H](CCCCN3CC[C@H](c4ccc5c(C6CCC(=O)NC6=O)nn(C)c5c4)C3)CC2)cccc1-c1ccc(N2CCc3cccc(C(=O)Nc4nc5ccccc5s4)c3C2)nc1C(=O)O` (single isomer, unassigned) [Compound 332a] as the compound, how does the “Ymin (24 h)” value read?
Its value is “A (Ymin < 50%)”.

And the DC50?
The DC50 was less than 0.1 µM.

What does the source list for `Cc1c(O[C@H]2CC[C@H](CCCCN3CC[C@@H](c4ccc5c(C6CCC(=O)NC6=O)nn(C)c5c4)C3)CC2)cccc1-c1ccc(N2CCc3cccc(C(=O)Nc4nc5ccccc5s4)c3C2)nc1C(=O)O` (single isomer, unassigned) [Compound 332b]?
Ymin (24 h): A (Ymin < 50%); DC50: < 0.1 µM

For `Cc1c(O[C@H]2CC[C@H](CCC[C@H](C)N3CCN(c4ccc5c(C6CCC(=O)NC6=O)nn(C)c5c4)CC3)CC2)cccc1-c1ccc(N2CCc3cccc(C(=O)Nc4nc5ccccc5s4)c3C2)nc1C(=O)O` (single isomer, unassigned) [Compound 333a], which “Ymin (24 h)” value is on record?
The value was “A (Ymin < 50%)”.

What about the DC50 of the same compound?
Its DC50 is less than 0.1 µM.

What does the source list for `Cc1c(O[C@H]2CC[C@H](CCC[C@@H](C)N3CCN(c4ccc5c(C6CCC(=O)NC6=O)nn(C)c5c4)CC3)CC2)cccc1-c1ccc(N2CCc3cccc(C(=O)Nc4nc5ccccc5s4)c3C2)nc1C(=O)O` (single isomer, unassigned) [Compound 333b]?
Ymin (24 h): A (Ymin < 50%); DC50: < 0.1 µM

With `Cc1c(O[C@H]2CC[C@H](CCCC(C)N3CCN(c4cccc5c(C6CCC(=O)NC6=O)nn(C)c45)CC3)CC2)cccc1-c1ccc(N2CCc3cccc(C(=O)Nc4nc5ccccc5s4)c3C2)nc1C(=O)O` (single isomer, unassigned) [Compound 349a] as the compound, how does the “Ymin (24 h)” value read?
The value was “A (Ymin < 50%)”.

And the DC50?
Its DC50 is less than 0.1 µM.

How did the “Ymin (24 h)” value turn out when `Cc1c(O[C@H]2CC[C@H](CCC[C@@H](C)N3CCN(c4cccc5c(C6CCC(=O)NC6=O)nn(C)c45)CC3)CC2)cccc1-c1ccc(N2CCc3cccc(C(=O)Nc4nc5ccccc5s4)c3C2)nc1C(=O)O` (single isomer, unassigned) [Compound 349b] was run?
The value was “A (Ymin < 50%)”.

And the DC50?
Its DC50 is less than 0.1 µM.

With `Cc1c(O[C@H]2CC[C@H](CCCCN3CCC[C@H](c4cccc5c(C6CCC(=O)NC6=O)nn(C)c45)C3)CC2)cccc1-c1ccc(N2CCc3cccc(C(=O)Nc4nc5ccccc5s4)c3C2)nc1C(=O)O` (single isomer, unassigned) [Compound 351a] as the compound, how does the “Ymin (24 h)” value read?
The value was “A (Ymin < 50%)”.

And the DC50?
Its DC50 is less than 0.1 µM.

`Cc1c(O[C@H]2CC[C@H](CCCCN3CCC[C@@H](c4cccc5c(C6CCC(=O)NC6=O)nn(C)c45)C3)CC2)cccc1-c1ccc(N2CCc3cccc(C(=O)Nc4nc5ccccc5s4)c3C2)nc1C(=O)O` (single isomer, unassigned) [Compound 351b] was tested. Which “Ymin (24 h)” value did it give?
Its value is “A (Ymin < 50%)”.

And the DC50?
Its DC50 is less than 0.1 µM.

What does the source list for `Cc1c(O[C@H]2CC[C@H](CCCCN3CCC[C@H](c4ccc5c(C6CCC(=O)NC6=O)nn(C)c5c4)C3)CC2)cccc1-c1ccc(N2CCc3cccc(C(=O)Nc4nc5ccccc5s4)c3C2)nc1C(=O)O` (single isomer, unassigned) [Compound 352a]?
Ymin (24 h): A (Ymin < 50%); DC50: < 0.1 µM

What does the source list for `Cc1c(O[C@H]2CC[C@H](CCCCN3CCC[C@@H](c4ccc5c(C6CCC(=O)NC6=O)nn(C)c5c4)C3)CC2)cccc1-c1ccc(N2CCc3cccc(C(=O)Nc4nc5ccccc5s4)c3C2)nc1C(=O)O` (single isomer, unassigned) [Compound 352b]?
Ymin (24 h): A (Ymin < 50%); DC50: < 0.1 µM

With `Cc1cc(OC[C@@H](C)CC2CCN(CC(=O)Nc3ccc4c(C5CCC(=O)NC5=O)nn(C)c4c3)CC2)ccc1-c1ccc(N2CCc3cccc(C(=O)Nc4nc5ccccc5s4)c3C2)nc1C(=O)O` (stereo in doubt) [Compound 271b, 6-(8-(benzo[d]thiazol-2-ylcarbamoyl)-3,4-dihydroisoquinolin-2(1H)-yl)-3-(4-((2S)-3-(1-(2-((3-(2,6-dioxopiperidin-3-yl)-1-methyl-1H-indazol-6-yl)amino)-2-oxoethyl)piperidin-4-yl)-2-methylpropoxy)-2-methylphenyl)picolinic acid] as the compound, how does the “Ymin (24 h)” value read?
The value was “C (Ymin ≥ 70%)”.

What about the DC50 of the same compound?
The DC50 was less than 0.1 µM.

How did the “Ymin (24 h)” value turn out when `Cc1c(OCC[C@H]2CCC3(CCN(CC(=O)Nc4ccc5c(C6CCC(=O)NC6=O)nn(C)c5c4)CC3)C2)cccc1-c1ccc(N2CCc3cccc(C(=O)Nc4nc5ccccc5s4)c3C2)nc1C(=O)O` (stereo in doubt) [Compound 272a, 6-(8-(benzo[d]thiazol-2-ylcarbamoyl)-3,4-dihydroisoquinolin-2(1H)-yl)-3-(3-(2-((2S)-8-(2-((3-(2,6-dioxopiperidin-3-yl)-1-methyl-1H-indazol-6-yl)amino)-2-oxoethyl)-8-azaspiro[4.5]decan-2-yl)ethoxy)-2-methylphenyl)picolinic acid] was run?
Its value is “A (Ymin < 50%)”.

What about the DC50 of the same compound?
The DC50 was less than 0.1 µM.

With `Cc1cc(O[C@H](C)CCC2CCN(CC(=O)Nc3ccc4c(C5CCC(=O)NC5=O)nn(C)c4c3)CC2)ccc1-c1ccc(N2CCc3cccc(C(=O)Nc4nc5ccccc5s4)c3C2)nc1C(=O)O` (stereo in doubt) [Compound 276a, 6-[8-(1,3-benzothiazol-2-ylcarbamoyl)-3,4-dihydro-1H-isoquinolin-2-yl]-3-[4-[(1R)-3-[1-[2-[[3-(2,6-dioxo-3-piperidyl)-1-methyl-indazol-6-yl]amino]-2-oxo-ethyl]-4-piperidyl]-1-methyl-propoxy]-2-methyl-phenyl]pyridine-2-carboxylic acid] as the compound, how does the “Ymin (24 h)” value read?
The value was “A (Ymin < 50%)”.

What about the DC50 of the same compound?
Its DC50 is less than 0.1 µM.

For `Cc1cc(O[C@@H](C)CCC2CCN(CC(=O)Nc3ccc4c(C5CCC(=O)NC5=O)nn(C)c4c3)CC2)ccc1-c1ccc(N2CCc3cccc(C(=O)Nc4nc5ccccc5s4)c3C2)nc1C(=O)O` (stereo in doubt) [Compound 276b, 6-[8-(1,3-benzothiazol-2-ylcarbamoyl)-3,4-dihydro-1H-isoquinolin-2-yl]-3-[4-[(1S)-3-[1-[2-[[3-(2,6-dioxo-3-piperidyl)-1-methyl-indazol-6-yl]amino]-2-oxo-ethyl]-4-piperidyl]-1-methyl-propoxy]-2-methyl-phenyl]pyridine-2-carboxylic acid], which “Ymin (24 h)” value is on record?
The value was “A (Ymin < 50%)”.

And the DC50?
Its DC50 is less than 0.1 µM.

Reference: patent US20240238423A9, “TETRAHYDROISOQUINOLINE HETEROBIFUNCTIONAL BCL-XL DEGRADERS” (Treeline Biosciences, Inc., priority 2022, published 2024)
